From patent publication US20060088533A1, “Methods of treating inflammatory bowel disease” (priority 2004, published 2006)

Legend:
ERK1/2 = assay: Western blot of ERK1/2 phosphorylation in colonocytes exposed to C. difficile toxin or LPA; type: cell-based, human; conditions: for TxB's activation of ERK: colonocytes preincubated with BAPTA 20uM or GF109203X 1uM before TxB addition
Protocol: NCM460 or HT29 cells were seeded in 12 well plates and grown to 70%-100% confluency. Cells were serum starved overnight prior to experiments. TxB or TxA were added in serum free medium at the indicated concentrations for varying lengths of time. Cells were then washed three times with ice cold phosphate buffered saline (PBS) and lysed in 1×SDS sample buffer (Cell Signaling Technology, Beverly, Mass.). Equal amounts of cell lysates were loaded onto 10% SDS-PAGE gels and transferred to nitrocellulose membranes (Bio-Rad Laboratories, Hercules, Calif.). Blots were probed with each primary antibody overnight at 4° C. and then with species-specific secondary antibodies coupled with horseradish peroxidase for 1 hour at room temperature. Peroxidase activity was detected by SuperSignal Chemiluminescent Substrate (Pierce, Rockford, Ill.). Signals were analyzed and quantified as described (Na, X. et al., EMBO J., 22:4249-4259 (2003)) and results were expressed as mean ±SD.

Rho = assay: C3 exoenzyme-catalyzed ADP-ribosylation assay (TxB-induced Rho glucosylation); type: cell-based, human; conditions: NCM460 cells; EGFR antibody 20 μg/ml or AG1478 0.5 μM 30 minutes, then TxB 20 nM 1 hour
NCM460 cells = assay: Cell rounding assay; type: cell-based, human; conditions: EGFR antibody 20 μg/ml or AG1478 0.5 μM 30 minutes, then TxB 20 nM 1 hour
Protocol: NCM460 cells were seeded on glass cover slides overnight. […] Cells were then fixed with formaldehyde for 10 minutes and rinsed three times in PBS. Percentage of cell rounding was quantitated by phase-contrast microscopy.

IL-8 promoter = assay: IL-8 luciferase promoter assay; type: cell-based, human; conditions: NCM460 cells; inhibitor 30 minutes, then TxB 20 nM 16 hours; versus DMSO
Protocol: A 1521-bp fragment (nucleotides −1481 to +40) of the promoter region of the human IL-8 gene was used to monitor transcription of IL-8 gene as previously described (Keates, S. et al., J. Biol. Chem., 276:48127-48134 (2001)). Cells were grown on 24-well plates and transiently transfected with the IL-8 promoter luciferase construct and a control luciferase construct pRL-TK (Promega Corp., Madison, Wis.) using Superfect (Qiagen Inc., Chatsworth, Calif.). Transfected cells were serum starved overnight and then exposed to TxB and/or pharmacological inhibitors at the indicated times. Cells were lysed, and firefly and renilla luciferase activities in cell extracts were measured using Dual-Luciferase Reporter Assay System (Promega Corp., Madison, Wis.). The relative luciferase activity was calculated by normalizing IL-8 promoter-driven firefly luciferase activity to control Renilla luciferase activity. Data from all experiments are represented as the relative luciferase activity (mean ±SD) from at least three independent sets of experiments, each with triplicate measurements.

IL-8 [1] = conditions: cited from earlier work
IL-8 [2] = conditions: cited from earlier work; remark: listed apart in the source
EGFR = target: T1, EGFR (Homo sapiens, UniProt P00533); assay: Western blot of EGFR phosphorylation in colonocytes exposed to C. difficile toxin; type: cell-based; conditions: for TxB's activation of EGFR: colonocytes preincubated with BAPTA 20uM or GF109203X 1uM before TxB addition
T1 construct: endogenous in cells; host or cells: NCM460 (nontransformed human colonic epithelial cells); HT29 (colonic adenocarcinoma cells)
T1 sequence (P00533 25-1210): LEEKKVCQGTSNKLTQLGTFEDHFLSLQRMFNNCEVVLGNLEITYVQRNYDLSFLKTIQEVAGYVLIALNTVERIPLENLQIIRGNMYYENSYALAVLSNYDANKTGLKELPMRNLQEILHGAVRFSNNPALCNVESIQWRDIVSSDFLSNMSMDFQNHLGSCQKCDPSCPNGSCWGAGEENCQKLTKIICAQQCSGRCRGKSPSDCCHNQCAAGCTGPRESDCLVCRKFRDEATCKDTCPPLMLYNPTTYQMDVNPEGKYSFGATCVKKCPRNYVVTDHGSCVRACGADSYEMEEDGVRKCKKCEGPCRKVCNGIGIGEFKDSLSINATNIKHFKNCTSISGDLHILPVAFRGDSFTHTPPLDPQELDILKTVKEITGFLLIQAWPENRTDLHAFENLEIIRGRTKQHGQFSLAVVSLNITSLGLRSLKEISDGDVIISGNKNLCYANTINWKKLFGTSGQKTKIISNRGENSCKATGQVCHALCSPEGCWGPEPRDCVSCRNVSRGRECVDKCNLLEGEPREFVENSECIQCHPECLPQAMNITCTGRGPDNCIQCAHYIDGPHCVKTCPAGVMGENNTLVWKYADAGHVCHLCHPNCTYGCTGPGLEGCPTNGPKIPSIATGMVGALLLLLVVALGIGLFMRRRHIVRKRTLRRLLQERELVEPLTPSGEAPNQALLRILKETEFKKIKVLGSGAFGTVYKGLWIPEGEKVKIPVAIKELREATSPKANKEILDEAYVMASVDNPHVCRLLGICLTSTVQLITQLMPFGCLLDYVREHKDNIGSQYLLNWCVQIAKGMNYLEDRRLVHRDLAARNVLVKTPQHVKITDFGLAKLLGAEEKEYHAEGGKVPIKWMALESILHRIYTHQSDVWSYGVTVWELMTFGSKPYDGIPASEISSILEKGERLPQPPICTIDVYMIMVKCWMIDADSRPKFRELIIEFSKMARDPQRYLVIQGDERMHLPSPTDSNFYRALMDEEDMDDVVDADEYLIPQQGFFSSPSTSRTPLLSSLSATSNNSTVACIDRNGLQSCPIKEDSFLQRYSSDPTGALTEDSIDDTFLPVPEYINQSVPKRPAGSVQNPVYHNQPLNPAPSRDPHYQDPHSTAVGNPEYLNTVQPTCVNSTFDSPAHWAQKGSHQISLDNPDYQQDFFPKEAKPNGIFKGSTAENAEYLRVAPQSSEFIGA

TGF-α = TGF-α secretion ELISA; type: cell-based, human; conditions: NCM460 cells; GM6001 25 μM 30 minutes prior to TxB for 1 or 3 hours; versus DMSO
Protocol: TGF-α secretion from colonocyte cultures was measured by enzyme-linked immunosorbent assay. Briefly, 96-well Nunc-immuno plates (Fisher Scientific) were coated with 0.4 ug/ml of TGF-α antibody diluted in PBS overnight at room temperature. Wells were blocked with PBS containing 1% BSA for 1 hour after washing 3 times with PBST (PBS with 0.1% Twin-20). Fifty μl of conditioned media or serial dilutions of TGF-α in PBS containing 1% BSA were then added to each well. After 2 hours, wells were washed and incubated with 0.3 μg/ml biotin-conjugated anti-TGF-α antibody for 1 hour. Streptavidin-horseradish peroxidase (1:1500) from Amersham Bioscience (Amersham, UK) was added to the wells. Peroxidase activity was measured by TMB Peroxidase Substrate Reagents (KPL Inc, Gaithersburg, Md.).

COc1cc2ncnc(Nc3cccc(Cl)c3)c2cc1OC [AG1478, tyrphostin AG1478]
Activation of ERK1/2 by TxB (ERK1/2; NCM460 cells, AG1478 0.2-1.0 uM for 30 minutes, then TxB 20 nM 60 minutes): completely blocked | TxB-induced Rho glucosylation (Rho): neither an EGFR antibody, nor a specific EGFR inhibitor, AG1478, altered | TxB-induced cell rounding (NCM460 cells): neither an EGFR antibody, nor a specific EGFR inhibitor, AG1478, altered | TxB-mediated IL-8 expression (IL-8 promoter): significantly inhibited | IL-8 production mediated by H. pylori (IL-8 [1]): significantly reduced | IL-8 production mediated by neurotensin (IL-8 [2]): significantly reduced

O=C(O)CN(CC(=O)O)c1ccccc1OCCOc1ccccc1N(CC(=O)O)CC(=O)O [BAPTA]
TxB's activation of EGFR (EGFR): decreased | TxB's activation of ERK (ERK1/2): decreased

CN(C)CCCn1cc(C2=C(c3c[nH]c4ccccc34)C(=O)NC2=O)c2ccccc21 [GF109203X]
TxB's activation of EGFR (EGFR): decreased | TxB's activation of ERK (ERK1/2): decreased

CNC(=O)[C@H](Cc1c[nH]c2ccccc12)NC(=O)[C@@H](CC(=O)NO)CC(C)C [GM6001]
Activation of the EGFR induced by TxB (EGFR; NCM460 cells, BB94 or GM6001 25 μM 30 minutes prior to TxB 20 nM, versus DMSO at 60 minutes): significantly inhibited | Activation of ERK1/2 induced by TxB (ERK1/2; NCM460 cells, BB94 3 mg/ml or GM6001 25 μM 30 minutes prior to TxB 20 nM, versus DMSO at 60 minutes): significantly inhibited | TxB-induced TGF-α secretion (TGF-α): significantly inhibited

COc1cccc(-c2cc(=O)c3ccccc3o2)c1N [PD98059]
TxB-mediated IL-8 expression (IL-8 promoter): significantly inhibited
